According to patent US12391671B2, “Allosteric EGFR inhibitors and methods of use thereof” (Dana-Farber Cancer Institute, Inc., priority 2019, dated 2025):
Where a name gives a salt, the structure may show the parent alone. Read-outs that look alike come from different tables or passages of the source.

Tests used:
EGFR L858R = EGFR L858R (Homo sapiens (Human), UniProt P00533, L858R); assay: HTRF-based EGFR biochemical assay (L858R); conditions: 100 μM ATP, enzyme 0.1 nM
In short: (§1)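 Mutant EGFR (L858R 0.1 nM, L858R/T790M 0.02 nM) preincubated 30 min with compounds at room temperature in HEPES pH 7.0 buffer with Mg2+/Mn2+, then reacted 20 min with 1 μM biotinylated tyrosine kinase peptide and 100 μM ATP. Phosphorylation read by HTRF (Eu-cryptate anti-phosphotyrosine/streptavidin-XL665, 665/620 nm) after EDTA quench.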

[1] = test system: EGFR mutant L858R/T790M Ba/F3 cells; assay: Ba/F3 cell proliferation model (Cell Titer Glo), EGFR L858R/T790M; type: cell-based, murine; conditions: 72 hours
In short: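 Retrovirally transduced Ba/F3 cells exposed 72 h to compound alone or with 1 μg/mL cetuximab, triplicate points, repeated at least three times. Viability by Cell Titer Glo luminescence (ATP); curves fitted by non-linear sigmoidal dose-response regression.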

EGFR L858R/T790M = EGFR L858R/T790M (Homo sapiens (Human), UniProt P00533, L858R/T790M); assay: HTRF-based EGFR biochemical assay (L858R/T790M); conditions: 100 μM ATP, enzyme 0.02 nM
Chain of EGFR L858R/T790M (P00533 25-1210 T790M/L858R): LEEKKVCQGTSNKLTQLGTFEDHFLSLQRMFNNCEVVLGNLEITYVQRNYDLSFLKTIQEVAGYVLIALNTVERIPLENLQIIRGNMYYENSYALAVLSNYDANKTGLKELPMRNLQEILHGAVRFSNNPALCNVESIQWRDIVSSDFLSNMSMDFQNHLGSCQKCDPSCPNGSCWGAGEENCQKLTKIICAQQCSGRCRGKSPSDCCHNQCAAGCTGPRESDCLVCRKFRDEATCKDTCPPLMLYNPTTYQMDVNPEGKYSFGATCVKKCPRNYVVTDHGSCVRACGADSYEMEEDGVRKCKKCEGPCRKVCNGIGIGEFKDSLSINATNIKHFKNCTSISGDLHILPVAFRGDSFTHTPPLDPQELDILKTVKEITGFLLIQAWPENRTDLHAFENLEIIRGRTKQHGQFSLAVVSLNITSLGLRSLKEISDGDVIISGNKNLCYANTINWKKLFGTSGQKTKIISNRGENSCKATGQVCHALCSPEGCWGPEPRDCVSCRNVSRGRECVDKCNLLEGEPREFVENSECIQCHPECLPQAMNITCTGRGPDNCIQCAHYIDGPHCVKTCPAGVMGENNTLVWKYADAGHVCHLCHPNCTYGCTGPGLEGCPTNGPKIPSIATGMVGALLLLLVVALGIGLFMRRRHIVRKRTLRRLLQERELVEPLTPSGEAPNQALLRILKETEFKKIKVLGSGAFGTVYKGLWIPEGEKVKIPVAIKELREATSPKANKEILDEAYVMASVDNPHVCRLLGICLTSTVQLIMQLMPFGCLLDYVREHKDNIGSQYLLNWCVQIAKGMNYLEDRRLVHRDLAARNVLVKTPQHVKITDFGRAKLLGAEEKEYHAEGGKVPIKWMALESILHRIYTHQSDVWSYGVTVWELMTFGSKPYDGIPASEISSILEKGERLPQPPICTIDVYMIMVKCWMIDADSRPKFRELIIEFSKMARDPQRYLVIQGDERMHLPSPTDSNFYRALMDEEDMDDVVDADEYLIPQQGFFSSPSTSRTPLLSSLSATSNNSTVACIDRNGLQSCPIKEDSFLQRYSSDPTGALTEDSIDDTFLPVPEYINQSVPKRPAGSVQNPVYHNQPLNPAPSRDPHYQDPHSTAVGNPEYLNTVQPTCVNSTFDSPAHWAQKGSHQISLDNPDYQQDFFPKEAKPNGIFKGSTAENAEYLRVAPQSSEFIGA
In short: as §1

[2] = Mus musculus, BaF3, single agent, read-out: Cell IC50 BaF3 EGFR L858R/T790M
[3] = in combination with 1 μg/mL cetuximab, read-out: Cell IC50 BaF3 EGFR L858R/T790M (+cetux.)

Chain of EGFR L858R (P00533 25-1210 L858R): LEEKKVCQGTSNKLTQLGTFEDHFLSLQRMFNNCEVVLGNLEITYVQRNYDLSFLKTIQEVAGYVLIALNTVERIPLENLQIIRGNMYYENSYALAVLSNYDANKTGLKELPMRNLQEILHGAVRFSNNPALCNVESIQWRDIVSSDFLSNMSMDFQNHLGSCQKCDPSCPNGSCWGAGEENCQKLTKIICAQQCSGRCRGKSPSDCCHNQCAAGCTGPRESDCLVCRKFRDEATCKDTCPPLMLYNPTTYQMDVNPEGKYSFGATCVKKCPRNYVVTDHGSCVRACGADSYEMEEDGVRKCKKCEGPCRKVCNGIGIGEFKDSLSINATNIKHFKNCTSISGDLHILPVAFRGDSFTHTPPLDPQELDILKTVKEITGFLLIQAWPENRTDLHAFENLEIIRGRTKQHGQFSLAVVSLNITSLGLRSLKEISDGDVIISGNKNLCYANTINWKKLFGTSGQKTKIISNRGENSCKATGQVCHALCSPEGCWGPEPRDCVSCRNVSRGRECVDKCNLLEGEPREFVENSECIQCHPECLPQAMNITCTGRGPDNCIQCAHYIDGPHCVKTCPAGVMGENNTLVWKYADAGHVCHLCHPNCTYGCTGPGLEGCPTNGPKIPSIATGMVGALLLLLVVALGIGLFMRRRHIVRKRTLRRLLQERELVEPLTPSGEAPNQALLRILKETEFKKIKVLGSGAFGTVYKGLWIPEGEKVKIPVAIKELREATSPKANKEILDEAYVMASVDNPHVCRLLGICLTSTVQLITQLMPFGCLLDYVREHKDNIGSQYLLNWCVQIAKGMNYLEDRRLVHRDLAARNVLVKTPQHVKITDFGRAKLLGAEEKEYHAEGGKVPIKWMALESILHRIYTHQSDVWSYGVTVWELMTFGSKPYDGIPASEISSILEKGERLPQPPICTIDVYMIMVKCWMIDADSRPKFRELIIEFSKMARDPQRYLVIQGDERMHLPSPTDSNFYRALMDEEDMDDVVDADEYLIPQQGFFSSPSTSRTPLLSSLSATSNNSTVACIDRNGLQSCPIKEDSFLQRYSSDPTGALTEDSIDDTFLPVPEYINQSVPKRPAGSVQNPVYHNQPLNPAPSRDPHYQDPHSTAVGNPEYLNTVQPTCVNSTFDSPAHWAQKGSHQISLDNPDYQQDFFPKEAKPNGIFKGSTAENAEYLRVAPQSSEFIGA

What does the source list for `CN1CC(Oc2ccc(-c3ccc4c(c3)C(=O)N(C(c3nc5ccccc5[nH]3)c3cc(F)ccc3O)C4)cc2)C1` (centres unmarked) [Compound 056, 2-[1H-benzimidazol-2-yl-(5-fluoro-2-hydroxy-phenyl)methyl]-6-[4-(1-methylazetidin-3-yl)oxyphenyl]isoindolin-1-one;dihydrochloride]?
IC50 (EGFR L858R): 12 nM; IC50 [1, 2]: 1280 nM; IC50 [1, 3]: 10 nM; IC50 (EGFR L858R/T790M): 8 nM

`O=C1c2cc(-c3ccc(C4CCNCC4)cc3)ccc2CN1C(c1nc2ccccc2[nH]1)c1cc(F)ccc1O` (centres unmarked) [Compound 062, 2-[1H-benzimidazol-2-yl-(5-fluoro-2-hydroxy-phenyl)-methyl]-6-[4-(4-piperidyl)-phenyl]isoindolin-1-one; hydrochloride] was tested. Which IC50 (EGFR L858R) did it give?
The IC50 was 3 nM.

What about the IC50 [1, 2] of the same compound?
Its IC50 is 650 nM.

What about the IC50 [1, 3] of the same compound?
Its IC50 is 20 nM.

And the IC50 (EGFR L858R/T790M)?
The IC50 was 0.7 nM.

With `CN1CC(c2ccc(-c3ccc4c(c3)C(=O)N(C(c3nc5ccccc5[nH]3)c3cc(F)ccc3O)C4)cc2)C1` (centres unmarked) [Compound 049, 2-[1H-benzimidazol-2-yl-(5-fluoro-2-hydroxy-phenyl)methyl]-6-[4-(1-methylazetidin-3-yl)phenyl]isoindolin-1-one] as the compound, how does the IC50 (EGFR L858R) read?
The IC50 was 6 nM.

And the IC50 [1, 2]?
The IC50 was 2540 nM.

What about the IC50 [1, 3] of the same compound?
The IC50 was 20 nM.

What about the IC50 (EGFR L858R/T790M) of the same compound?
Its IC50 is 2 nM.

For `O=C1c2cc(C#CCN3CCS(=O)(=O)CC3)ccc2CN1C(c1nc2ccccc2[nH]1)c1cc(F)ccc1O` (centres unmarked) [Compound 013, 2-[1H-benzimidazol-2-yl-(5-fluoro-2-hydroxy-phenyl)methyl]-6-[3-(1,1-dioxo-1,4-thiazinan-4-yl)prop-1-ynyl]isoindolin-1-one; hydrochloride], which IC50 (EGFR L858R) is on record?
Its IC50 is 22 nM.

And the IC50 [1, 2]?
The IC50 was greater than 10000 nM.

And the IC50 [1, 3]?
The IC50 was 260 nM.

And the IC50 (EGFR L858R/T790M)?
Its IC50 is 33 nM.

Which IC50 (EGFR L858R) does the source give for `CN1CCC(c2ccc(-c3ccc4c(c3)C(=O)N(C(c3nc5cccnc5[nH]3)c3n[nH]c5c3CCC5)C4)cc2)CC1` (centres unmarked) [Compound 031, 2-[1H-Imidazo[4,5-b]pyridin-2-yl(1,4,5,6-tetrahydrocyclopenta[c]pyrazol-3-yl)methyl]-6-[4-(1-methyl-4-piperidy)phenyl]isoindolin-1-one] here?
Its IC50 is 45 nM.

And the IC50 [1, 2]?
The IC50 was greater than 10000 nM.

What about the IC50 [1, 3] of the same compound?
The IC50 was 370 nM.

What about the IC50 (EGFR L858R/T790M) of the same compound?
Its IC50 is 8 nM.

Which results are given for `Cn1cc(-c2ccc(-c3ccc4c(c3)C(=O)N(C(c3nc5ccccc5[nH]3)c3cc(F)ccc3O)C4)cc2)cn1` (centres unmarked) [Compound 058, 2-[1H-benzimidazol-2-yl-(5-fluoro-2-hydroxy-phenyl)-methyl]-6-[4-(1-methylpyrazol-4-yl)phenyl]isoindolin-1-one; dihydrochloride]?
IC50 (EGFR L858R): 67 nM; IC50 [1, 2]: 1420 nM; IC50 [1, 3]: 20 nM; IC50 (EGFR L858R/T790M): 12 nM

Which results are given for `CN1CCC(c2ccc(-c3ccc4ncn(C(c5nc6ccccc6[nH]5)c5cc(F)ccc5O)c(=O)c4c3)cc2F)CC1` (centres unmarked) [Compound 001, 3-[1H-Benzimidazol-2-yl-(5-fluoro-2-hydroxy-phenyl)methyl]-6-[3-fluoro-4-(1-methyl-4-piperidyl)phenyl]quinazolin-4-one; hydrochloride]?
IC50 (EGFR L858R): 1 nM; IC50 [1, 2]: 320 nM; IC50 [1, 3]: 9 nM; IC50 (EGFR L858R/T790M): 0.4 nM

What does the source list for `O=C1c2cc(-c3ccc(-c4cn[nH]c4)cc3)ccc2CN1C(c1nc2ccccc2[nH]1)c1cc(F)ccc1O` (centres unmarked) [Compound 057, 2-[1H-benzimidazol-2-yl-(5-fluoro-2-hydroxy-phenyl)-methyl]-6-[4-(1H-pyrazol-4-yl)-phenyl]isoindolin-1-one]?
IC50 (EGFR L858R): 37 nM; IC50 [1, 2]: 550 nM; IC50 [1, 3]: 10 nM; IC50 (EGFR L858R/T790M): 17 nM

Which results are given for `CN1CCC(c2ccc(-c3ccc4c(c3)C(=O)N([C@H](c3nc5ccccc5[nH]3)c3cc(F)ccc3O)C4)cc2)CC1` (single isomer, unassigned) [Compound 023]?
IC50 (EGFR L858R): 6 nM; IC50 [1, 2]: 950 nM; IC50 [1, 3]: 20 nM; IC50 (EGFR L858R/T790M): 1 nM

For `CN1CCC(c2ccc(-c3ccc4ncn(C(c5ccccc5)c5nc6ccccc6[nH]5)c(=O)c4c3)cc2)CC1` (centres unmarked) [Compound 002, 3-[1H-Benzimidazol-2-yl(phenyl)methyl]-6-[4-(1-methyl-4-piperidyl)phenyl]quinazolin-4-one], which IC50 (EGFR L858R) is on record?
Its IC50 is 17 nM.

What about the IC50 [1, 2] of the same compound?
The IC50 was 4450 nM.

And the IC50 [1, 3]?
Its IC50 is 140 nM.

And the IC50 (EGFR L858R/T790M)?
The IC50 was 4 nM.

What does the source list for `CN1CCC(C#Cc2ccc3c(c2)C(=O)N(C(c2nc4ccccc4[nH]2)c2cc(F)ccc2O)C3)CC1` (centres unmarked) [Compound 011, 2-[1H-benzimidazol-2-yl-(5-fluoro-2-hydroxy-phenyl)methyl]-6-[2-(1-methyl-4-piperidyl)-ethynyl]isoindolin-1-one; hydrochloride]?
IC50 (EGFR L858R): 15 nM; IC50 [1, 2]: 1920 nM; IC50 [1, 3]: 10 nM; IC50 (EGFR L858R/T790M): 10 nM

What does the source list for `CN1CCC(n2cc(-c3ccc4c(c3)C(=O)N(C(c3nc5ccccc5[nH]3)c3cc(F)ccc3O)C4)cn2)CC1` (centres unmarked) [Compound 060, 2-[1H-benzimidazol-2-yl-(5-fluoro-2-hydroxy-phenyl)-methyl]-6-[1-(1-methyl-4-piperidyl)pyrazol-4-yl]isoindolin-1-one; hydrochloride]?
IC50 (EGFR L858R): 27 nM; IC50 [1, 2]: 5500 nM; IC50 [1, 3]: 110 nM; IC50 (EGFR L858R/T790M): 18 nM

How did the IC50 (EGFR L858R) turn out when `CN1CCC(c2ccc(-c3ccc4ncn(C(c5cccc(F)c5)c5nc6ccccc6[nH]5)c(=O)c4n3)cc2)CC1` (centres unmarked) [Compound 008, 3-((1H-Benzo[d]imidazol-2-yl)(3-fluorophenyl)methyl)-6-(4-(1-methylpiperidin-4-yl)phenyl)-pyrido[3,2-d]pyrimidin-4(3H)-one 2,2,2-trifluoroacetate] was run?
The IC50 was 42 nM.

And the IC50 [1, 2]?
The IC50 was 5410 nM.

And the IC50 [1, 3]?
Its IC50 is 170 nM.

And the IC50 (EGFR L858R/T790M)?
Its IC50 is 5 nM.

What does the source list for `CN1CCC(c2ccc(-c3ccc4c(c3)C(=O)N(C(c3nc5ccccc5[nH]3)c3cc(F)ccc3O)C4)c(F)c2)CC1` (centres unmarked) [Compound 029, 2-[1H-benzimidazol-2-yl-(5-fluoro-2-hydroxy-phenyl)-methyl]-6-[2-fluoro-4-(1-methyl-4-piperidyl)phenyl]isoindolin-1-one; formic acid]?
IC50 (EGFR L858R): 2 nM; IC50 [1, 2]: 760 nM; IC50 [1, 3]: 20 nM; IC50 (EGFR L858R/T790M): 0.6 nM

With `CN1CCC(c2ccc(-c3ccc4c(c3)C(=O)N(C(c3nc5cnccc5[nH]3)c3cc(F)ccc3O)C4)cc2)CC1` (centres unmarked) [Compound 015, 2-[(5-Fluoro-2-hydroxy-phenyl)-(1H-imidazo[4,5-c]pyridin-2-yl)methyl]-6-[4-(1-methyl-4-piperidyl)phenyl]isoindolin-1-one;hydrochloride] as the compound, how does the IC50 (EGFR L858R) read?
The IC50 was 15 nM.

What about the IC50 [1, 2] of the same compound?
Its IC50 is 1100 nM.

What about the IC50 [1, 3] of the same compound?
Its IC50 is 20 nM.

What about the IC50 (EGFR L858R/T790M) of the same compound?
Its IC50 is 2 nM.

For `CN1CCC(c2ccc(-c3ccc4c(c3)C(=O)N(C(c3nc5nccnc5[nH]3)c3cc(F)ccc3O)C4)cc2)CC1` (centres unmarked) [Compound 019, 2-[(5-Fluoro-2-hydroxy-phenyl)-(1H-imidazo[4,5-b]pyrazin-2-yl)methyl]-6-[4-(1-methyl-4-piperidyl)phenyl]isoindolin-1-one; hydrochloride], which IC50 (EGFR L858R) is on record?
Its IC50 is 4 nM.

And the IC50 [1, 2]?
The IC50 was 1870 nM.

What about the IC50 [1, 3] of the same compound?
Its IC50 is 10 nM.

And the IC50 (EGFR L858R/T790M)?
The IC50 was 1 nM.

With `CN1CCC(c2ccc(-c3cnc4c(c3)C(=O)N(C(c3nc5ccccc5[nH]3)c3cc(F)ccc3O)C4)cc2)CC1` (centres unmarked) [Compound 010, 6-[1H-Benzimidazol-2-yl-(5-fluoro-2-hydroxy-phenyl)methyl]-3-[4-(1-methyl-4-piperidyl)phenyl]-7H-pyrrolo[3,4-b]pyridin-5-one] as the compound, how does the IC50 (EGFR L858R) read?
Its IC50 is 12 nM.

And the IC50 [1, 2]?
Its IC50 is 1930 nM.

And the IC50 [1, 3]?
Its IC50 is 20 nM.

What about the IC50 (EGFR L858R/T790M) of the same compound?
The IC50 was 4 nM.
